From patent publication US9433663B2, “Mobilization of hematopoietic stem cells” (Children's Hospital Medical Center, priority 2008, dated 2016)

Key:
Cdc42 [1] = molecular target: Cdc42 (Homo sapiens, UniProt P60953); assay: nucleotide exchange: intersectin-induced association of mant-GDP with Cdc42; assay type: biochemical; conditions: FIG. 1b
Description: For example, even at 10 times the IC50 of Cdc42, a 50% inhibition of the association of mant-GDP with Rac or Rho was not achieved.

[2] = test system: Lin^−c-Kit^+ BM progenitors; assay: F-actin immunofluorescence in Lin−c-Kit+ BM progenitors; assay type: cell-based, murine; conditions: double-sorted Lin^−c-Kit^+ BM progenitors; CASIN pre-treatment at 5 or 10 μM
Description: To shed light on potential roles of CASIN in HSPC mobilization, the effects of CASIN on Cdc42-related cellular functions was studied, including adhesion, migration, and F-actin polymerization of progenitor cells in 32D myeloid progenitors. […] SDF-1α stimulation causes a reorganization of F-actin into a cortical ring around the cells. […] Thirdly, to gain further insight into cellular specificity and efficacy of CASIN, and also to rule out possible toxic effects by CASIN, Cdc42-involved BM progenitor cell functions were examined, including proliferation, adhesion, migration, and F-actin polymerization, in Cdc42^+/+ cells in parallel with Cdc42^−/− cells. In line with additional studies in a Cdc42 conditional knockout mouse model as described herein, Cdc42^−/− LDBM cells have increased CFU-forming progenitors compared to those of Cdc42^+/+.
Cells then were stimulated with 100 ng/ml SDF-1α for 45 secs, and further stained with Rhodamine/Phalloidin for actin and DAPI for nucleus as described herein.

C57Bl/6 mice = assay: Example 7 PK/PD analysis of HPC mobilization in C57Bl/6 mice; assay type: in vivo
Procedure: The mice are i.p. administered with CASIN at 6 different doses (0.5, 1.0, 2.5, 5.0, 7.5, and 10 mg/Kg), and ˜1 ml blood are collected by cardiac puncture for PD and PK analysis predosing, 6, 12, 24, 36, 48, 60, and 72 h postdosing. 5 mice are used for each group. To do PK analysis, concentrations of CASIN in plasma are determined by high-pressure liquid chromatography (HPLC) with electrochemical detection, and then all compartmental and noncompartmental analyses are performed using WinNonlin Professional (version 2.0) software (Pharsight, Cary, N.C.). The maximum drug concentration in serum (Cmax) and the time to Cmax are determined directly from the concentration-time curves. Terminal elimination half-life is determined by linear regression of the log-transformed final concentration-time points. As for the PD analysis, the effects of CASIN on mobilization of CFU-GM, CFU-GEMM, BFU-E and CFU-E to the blood of C57Bl/6 mice are evaluated. By using the rest of blood, assays for CFU-GM, CFU-GEMM, BFU-E and CFU-E are performed using ingredients and cytokine combinations, and then the plot of CFU number versus time across the dose groups is drawn. In this way, the optimal dose and time for mobilization in C57Bl/6 mice are determined. […]

Cdc42 [3] = molecular target: T1, Cdc42 (Mus musculus, UniProt P60766); assay: Rho GTPase pull-down of BM cells after in vivo administration; set-up: from tissue; host or cells: bone marrow (LDBM) cells of C57Bl/6 mice; conditions: C57Bl/6 mice; FIG. 8a legend: BM cells harvested 20 mins after CASIN administration
Procedure: FIG. 8A. CASIN inhibited Cdc42 activity in BM cells harvested from C57Bl/6 mice 20 mins after CASIN administration.
Whether CASIN administration can induce mobilization of HSC/Ps to peripheral blood of C57Bl/6 mice, mimicking the phenotype observed in Cdc42 conditional knockout mice, was evaluated. First of all, mobilization of hematopoietic progenitor cells was examined by CFU-C assays functionally (FIG. 3a). […] Secondarily, to further explore the ability of CASIN to mobilize LT-HSC which is crucial for long-term repopulation of the mobilized cells, serial transplantations were carried out, where 20 million PB from CASIN-mobilized C57Bl/6 mice was transplanted into primary recipient of NOD/SCID mice, and subsequent secondary and tertiary transplants were finished as well using prior BMs (FIG. 3c). Donor chimerisms were assessed by using H2K^b congenic marker which is positive for donors of C57Bl/6 strain and negative for recipients of NOD/SCID strain. […] Therefore, the studies show CASIN can efficiently mobilize colony-forming hematopoietic progenitors and LT-HSCs with self-renewal and multi-lineage differentiation capacity. Thirdly, to further investigate the potential of CASIN to vacate the BM niche after mobilization, six-color staining of the BM cells was performed from C57Bl/6 mice with or without CASIN treatment followed by FACS analysis. […]

Cdc42 [4] = molecular target: T1, Cdc42; assay: Cdc42 activity (effector pulldown) in primary murine fibroblasts; assay type: cell-based; set-up: endogenous in cells; host or cells: murine low density bone marrow (LDBM) cells; conditions: Cdc42GAP^−/− primary murine fibroblasts
Description: To investigate the Cdc42-dependent cytoskeleton rearrangement, Swiss 3T3 fibroblasts were used since it was abundantly elaborated in Swiss 3T3 fibroblats that bradykinin induces actin filopodia formation through activating Cdc42, whereas PDGF activates Rac1 and induces Rac-mediated membrane lamellipoidia, and LPA responsible for RhoA activation, eliciting RhoA-medicated formation of actin stress fibers and focal adhesion assembly (Ridley, A. J. et al. Cell 70, 401-410 (1992); Ridley, A. J. et al. Cell 70, 389-399 (1992); Kozma, R. et al. Mol Cell Biol 15, 1942-1952 (1995)).
To analyze the effects of CASIN on the formation of active GTP-bound Cdc42, RhoA, and Rac1, effector pulldown assays were carried out as described previously. Cdc42GAP^−/− MEF, LDBM, CD34^+ hCB cells were treated with CASIN at doses of 5-20 μM in parallel with vehicle control for 2 hrs after overnight starvation, and stimulated with cytokines subsequently. And then cells were lysed in a buffer containing 20 mM Tris-HCL (pH 7.6), 100 mM NaCl, 1% Triton X-100, 10 mM MgCl2, 2 mM NaF, and Protease inhibitor cocktail (Roche Diagnostics). Lysates were incubated with GST-P21-binding domain of PAK1 for RAC1-GTP and Cdc42-GTP, and GST-RBD domain of Rhotekin for RhoA-GTP respectively. […]

T1 sequence (P60766 whole entry): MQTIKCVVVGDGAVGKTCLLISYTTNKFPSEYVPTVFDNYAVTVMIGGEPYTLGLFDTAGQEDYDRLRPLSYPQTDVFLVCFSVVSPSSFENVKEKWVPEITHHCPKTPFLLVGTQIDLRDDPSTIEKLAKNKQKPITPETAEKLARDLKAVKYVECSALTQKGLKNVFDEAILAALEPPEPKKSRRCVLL
Cdc42 (Homo sapiens, UniProt P60953), sequence (P60953 whole entry, species assumed): as the sequence (P60766 whole entry) above

Question: `OCCNC1CCCc2c1[nH]c1ccc(-c3ccccc3)cc21` (stereo not drawn) [CASIN] was tested. Which “association of mant-GDP with Cdc42 induced by intersectin” value (Cdc42 [1]) did it give?
Answer: dose-dependent inhibition

Question: And the “SDF-1α mediated reorganization of F-actin into cortical actin ring” value [2]?
Answer: lost their capacities to reorganize F-actin into the cortical actin ring

Question: What about the “mobilization after multiple injections one half-life time apart” value (C57Bl/6 mice; C57/B16) of the same molecule?
Answer: stronger mobilization effects than that of single CASIN injection

Question: And the “mobilization of HPCs (colony numbers versus dose)” value (C57Bl/6 mice; single i.p. dose, C57Bl/6 mice)?
Answer: dose-dependent pattern

Question: And the “Cdc42 activity in LDBM cells after in vivo administration” value (Cdc42 [3])?
Answer: really down

Question: And the Cdc42 activity (Cdc42 [4])?
Answer: dose-dependently inhibited
